Test results published in the supplement of paper PMC11003180.

How the values were obtained:
Experiment in all cases: drug sensitivity score (DSS) from 5-dose viability curve (DSS (area-based score, 0 = no response)); higher = more sensitive (stronger viability inhibition); extreme values may be limits of the assay
[1] = system: MDCK wild-type - doxycycline; details: doxycycline: none; 72 h
Outline: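 Parental MDCK cells, grown without doxycycline, were seeded at 2000 cells/well into 384-well plates pre-spotted with an oncology library of 528 drugs at five doses (1-10,000 nM). After 72 h at 37 °C, CellTiter-Glo luminescence was read. Viability was scaled per plate between vehicle and positive controls, and drug sensitivity scores were derived from dose-response curve fits in the Breeze pipeline.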

[2] = system: MDCK p60AmotL2-inducible + doxycycline (p60AmotL2 expressing); details: doxycycline: 10 ng/mL; 72 h
Outline: (§1)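 After 72 h at 37 °C on 384-well plates pre-spotted with 528 oncology drugs at five doses (1-10,000 nM), parental and doxycycline-inducible MDCK cells were assessed; both lines had been given 10 ng/mL doxycycline in the medium before seeding at 2000 cells/well. Viability was taken from CellTiter-Glo luminescence scaled per plate to vehicle and positive controls, and drug sensitivity scores were derived from dose-response fits in the Breeze pipeline.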

[3] = system: MDCK wild-type + doxycycline; details: doxycycline: 10 ng/mL; 72 h
Outline: as §1

| SMILES | drug sensitivity score [1] | drug sensitivity score [2] | drug sensitivity score [3] |
| --- | --- | --- | --- |
| CO[C@H]1C[C@@H]2CC[C@@H](C)[C@@](O)(O2)C(=O)C(=O)N2CCCC[C@H]2C(=O)O[C@H]([C@H](C)C[C@@H]2CC[C@@H](O)[C@H](OC)C2)CC(=O)[C@H](C)/C=C(\C)[C@@H](O)[C@@H](OC)C(=O)[C@H](C)C[C@H](C)/C=C/C=C/C=C/1C [Sirolimus] | 1.9 | 7.6 | 2.3 |
| COCCNCc1ccc(-c2cc3nccc(Oc4ccc(NC(=O)C5(C(=O)Nc6ccc(F)cc6)CC5)cc4F)c3s2)nc1 [Sitravatinib] | 0 | 1.7 | 1.2 |
| Cc1c(C(=O)Nc2ccc(N3C[C@@H](C)O[C@@H](C)C3)nc2)cccc1-c1ccc(OC(F)(F)F)cc1 [Sonidegib] | 0.6 | 0 | 0 |
| C=CCN(/C=C1/C(=O)O[C@H](COC)[C@@]2(C)C1=C(O)C(=O)C1=C2[C@H](OC(C)=O)C[C@]2(C)C(=O)CC[C@@H]12)CC=C [Sonolisib] | 0 | 0 | 0 |
| CNC(=O)c1cc(Oc2ccc(NC(=O)Nc3ccc(Cl)c(C(F)(F)F)c3)cc2)ccn1 [Sorafenib] | 0 | 0 | 0 |
| CN1CCN(c2nc(C3=C(c4c[nH]c5ccccc45)C(=O)NC3=O)c3ccccc3n2)CC1 [Sotrastaurin] | 0 | 0.3 | 0 |
| C=CC(=O)Nc1cccc(Nc2nc(Nc3ccc(OCCOC)cc3)ncc2F)c1 [Spebrutinib] | 0 | 0.8 | 0 |
| CC(C)n1cnc2c(NCCc3ccc(O)cc3)nc(-c3csc4ccccc34)nc21 [StemRegenin 1] | 2 | 1.5 | 0.9 |
| CCN(CC)CCNC(=O)c1c(C)[nH]c(/C=C2\C(=O)Nc3ccc(F)cc32)c1C [Sunitinib] | 0 | 1.2 | 0 |
| CC(C)(O)CC(=O)NCCn1ccc2ncnc(Nc3ccc(Oc4cccc(C(F)(F)F)c4)c(Cl)c3)c21 [TAK-285] | 1.8 | 6.4 | 3.1 |
| CCS(=O)(=O)c1cccc(-c2cc(C(=O)NC3CCN(C)CC3)c(C)c3[nH]c4ncc(C)cc4c23)c1 [TAK-901] | 0 | 1.8 | 0.7 |
| Cc1cccc(-c2[nH]c(CNc3ccccc3F)nc2-c2ccc3ncnn3c2)n1 [TEW-7197] | 1.1 | 4.3 | 0 |
| Nc1nc(N)c2nc(-c3cccc(O)c3)c(-c3cccc(O)c3)nc2n1 [TG100-115] | 0 | 0 | 0 |
| CC(C)Oc1ccc(-c2nn([C@@H](C)c3oc4ccc(F)cc4c(=O)c3-c3cccc(F)c3)c3ncnc(N)c23)cc1F [TGR-1202] | 0 | 3.9 | 2.1 |
| Cc1cc(C(C)Nc2ccccc2)c2nc(N3CCOCC3)cc(=O)n2c1 (centres undefined) [TGX-221] | 0 | 0.3 | 0.4 |
| Nc1nc(NC2CC2)cc(-c2cccc(Cl)c2Cl)n1 [TH588] | 0 | 0 | 0 |
| Clc1ccccc1C(c1ccccc1)(c1ccccc1)n1cccn1 [TRAM-34] | 0 | 0 | 0 |
| CC(=O)Nc1ccc(C(=O)Nc2ccccc2N)cc1 [Tacedinaline] | 0 | 0 | 0 |
| C=CC[C@@H]1/C=C(\C)C[C@H](C)C[C@H](OC)[C@H]2O[C@@](O)(C(=O)C(=O)N3CCCC[C@H]3C(=O)O[C@H](/C(C)=C/[C@@H]3CC[C@@H](O)[C@H](OC)C3)[C@H](C)[C@@H](O)CC1=O)[C@H](C)C[C@@H]2OC [Tacrolimus] | 0 | 0 | 0 |
| CN(C(=O)c1ccc(F)cc1C(F)(F)F)C1CCN(c2nnc(-c3ccnn3C)c3ccccc23)CC1 [Taladegib] | 0 | 0 | 0 |
| Cn1ncnc1[C@H]1c2n[nH]c(=O)c3cc(F)cc(c23)N[C@@H]1c1ccc(F)cc1 [Talazoparib] | 0 | 2.3 | 0 |
| C[C@@H]1CN(Cc2ccc(F)cc2)[C@@H](C)CN1C(=O)c1cc2c(C(=O)C(=O)N(C)C)cn(C)c2cc1Cl [Talmapimod] | 0 | 0 | 0 |

| SMILES | drug sensitivity score [1] | drug sensitivity score [2] | drug sensitivity score [3] |
| --- | --- | --- | --- |
| COc1cc(Nc2ncc(F)c(Nc3ccc4c(n3)NC(=O)C(C)(C)O4)n2)cc(OC)c1OC [Tamatinib] | 0 | 1.6 | 0 |
| CC/C(=C(\c1ccccc1)c1ccc(OCCN(C)C)cc1)c1ccccc1 [Tamoxifen] | 0 | 1 | 0 |
| COc1cc2c(N3CCN(C(=O)Nc4ccc(OC(C)C)cc4)CC3)ncnc2cc1OCCCN1CCCCC1 [Tandutinib] | 0 | 0 | 0 |
| O[C@H]1CC[C@H](Nc2ncc3nc(Nc4c(F)cc(F)cc4F)n([C@H]4CCOC4)c3n2)CC1 [Tanzisertib] | 0 | 0.9 | 0.1 |
| C[C@@H](C(=O)O)c1ccc(-c2ccccc2)c(F)c1 [Tarenflurbil] | 0 | 0 | 0 |
| Cc1nc(-c2cn3c(n2)-c2ccc(-c4cnn(C(C)(C)C(N)=O)c4)cc2OCC3)n(C(C)C)n1 [Taselisib] | 0 | 6.3 | 0.3 |
| COc1cccc2c1c(O)c(C(=O)N(C)c1ccc(C(F)(F)F)cc1)c(=O)n2C [Tasquinimod] | 0 | 0 | 0 |
| CCN(c1cc(-c2ccc(CN3CCOCC3)cc2)cc(C(=O)NCc2c(C)cc(C)[nH]c2=O)c1C)C1CCOCC1 [Tazemetostat] | 0 | 2.1 | 0 |
| CNC(=O)c1cc(COc2nnc(Nc3ccc(Cl)cc3)c3ccoc23)ccn1 [Telatinib] | 0 | 0 | 0 |
| Cn1nnc2c(C(N)=O)ncn2c1=O [Temozolomide] | 0 | 0 | 0 |
| CO[C@H]1C[C@@H]2CC[C@@H](C)[C@@](O)(O2)C(=O)C(=O)N2CCCC[C@H]2C(=O)O[C@H]([C@H](C)C[C@@H]2CC[C@@H](OC(=O)C(C)(CO)CO)[C@H](OC)C2)CC(=O)[C@H](C)/C=C(\C)[C@@H](O)[C@@H](OC)C(=O)[C@H](C)C[C@H](C)/C=C/C=C/C=C/1C [Temsirolimus] | 0 | 10 | 2.3 |
| COc1cc([C@@H]2c3cc4c(cc3[C@@H](O[C@@H]3O[C@@H]5CO[C@@H](c6cccs6)O[C@H]5[C@H](O)[C@H]3O)[C@H]3COC(=O)[C@H]23)OCO4)cc(OC)c1O [Teniposide] | 0.9 | 2.7 | 1.5 |
| CN1CCC(COc2cnc(-c3cccc(Cn4nc(-c5cccc(C#N)c5)ccc4=O)c3)nc2)CC1 [Tepotinib] | 0 | 0.1 | 0 |
| COc1cc2c(Nc3ccc(Cl)c(Cl)c3F)ncnc2cc1OC[C@@H]1C[C@@H]2CN(C)C[C@@H]2C1 [Tesevatinib] | 5.8 | 18.9 | 8.5 |
| O=C1CCC(N2C(=O)c3ccccc3C2=O)C(=O)N1 (centres undefined) [Thalidomide] | 0 | 0 | 0 |
| Nc1nc2[nH]cnc2c(=S)[nH]1 [Thioguanine] | 1.1 | 1.5 | 3.8 |
| O=c1sn(-c2cccc3ccccc23)c(=O)n1Cc1ccccc1 [Tideglusib] | 0 | 0 | 0 |
| Cn1cncc1[C@@](N)(c1ccc(Cl)cc1)c1ccc2c(c1)c(-c1cccc(Cl)c1)cc(=O)n2C [Tipifarnib] | 2.5 | 9.6 | 4.4 |
| CC#CC(=O)N1CC[C@@H](n2c(=O)n(-c3ccc(Oc4ccccc4)cc3)c3c(N)ncnc32)C1 [Tirabrutinib] | 0 | 4 | 0.8 |
| O=C1NC(=O)[C@@H](c2cn3c4c(cccc24)CCC3)[C@@H]1c1c[nH]c2ccccc12 [Tivantinib] | 1.6 | 2.7 | 3.4 |
| COc1cc2nccc(Oc3ccc(NC(=O)Nc4cc(C)on4)c(Cl)c3)c2cc1OC [Tivozanib] | 2.5 | 4.4 | 8.2 |
